“And” between values parts separate entries of the source, which are not always exact repeats. Identical values can stand only once.
How the values were obtained:
[1] = instrument: TW, calibrated with polyalanine
[2] = instrument: DT, single field, calibrated with Agilent tune mix (Agilent)
[3] = instrument: DT, stepped-field
[4] = instrument: DT, stepped-field; remark: listed apart in the source
[5] = instrument: DT, stepped-field; remark: listed apart in the source
[6] = instrument: TW, calibrated with phosphatidylcholines (ESI+) and phosphatidylethanolamines (ESI-), doubly charged cardiolipins calibrated with poly-DL-…

Nc1ccn([C@H]2C[C@H](O)[C@@H](COP(=O)(O)O)O2)c(=O)n1 [dCMP]
collision cross section (N2) ([1]; [M+Na]+): 161 Å²

O=C(O)[C@@H]1C[C@@H](O)CN1 [Hydroxyproline]
collision cross section (N2) ([1]; [M+H]+): 122 Å² | collision cross section (N2) ([2]; [M+H]+): 128.1 Å²

CC(=O)O[C@H](CC(=O)[O-])C[N+](C)(C)C [Acetylcarnitine]
collision cross section (N2) ([1]; [M+H]+): 142 Å² | collision cross section (N2) ([2]; [M+H]+): 143 Å²

Nc1nc(=O)c2ncn([C@@H]3O[C@H](COP(=O)(O)OP(=O)(O)OP(=O)(O)O)[C@@H](O)[C@H]3O)c2[nH]1 [GTP]
collision cross section (N2) ([1]; [M+H]+): 196 Å²

CCCC/C=C\C/C=C\CCCCCCCC(=O)O[C@H](COC(=O)CCCCCCCCCCCC)COP(=O)([O-])OCC[N+](C)(C)C [PC(14:1/16:1)]
collision cross section (N2) ([3]; [M+H]+): 279.6 Å²

Nc1ncnc2c1ncn2[C@@H]1O[C@H](COP(=O)(O)OP(=O)(O)O)[C@@H](O)[C@H]1O [ADP]
collision cross section (N2) ([1]; [M+H]+): 181 Å²

CCCCC/C=C\C/C=C\CCCCCCCC(=O)O[C@H](COCCCCCCCCCCCCCCCC)COP(=O)([O-])OCC[N+](C)(C)C [PC(o34:2)]
collision cross section (N2) ([3]; [M+H]+): 297.2 Å²

N[C@@H](CCC(=O)N[C@@H](CSSC[C@H](NC(=O)CC[C@H](N)C(=O)O)C(=O)NCC(=O)O)C(=O)NCC(=O)O)C(=O)O [glutathione disulfide]
collision cross section (N2) ([1]; [M+H]+): 227 Å²

CCCCCCCC/C=C\CCCCCCCCCC(=O)O[C@H](COC(=O)CCCCCCCCCCC)COP(=O)(O)OC[C@@H](O)CO [PG(16:0/16:1)]
collision cross section (N2) ([3]; [M-H]-): 268.7 Å²

CC(C)C[C@H](N)C(=O)O [Leucine]
collision cross section (N2) ([1]; [M+H]+): 128 Å²

O=C(O)[C@@H]1CCCN1 [Proline]
collision cross section (N2) ([1]; [M+H]+): 118 Å²

N[C@@H](CSSC[C@H](N)C(=O)O)C(=O)O [Cystine]
collision cross section (N2) ([1]; [M+H]+): 145 Å²

Cn1cnc(C[C@H](N)C(=O)O)c1 [1-Methylhistidine]
collision cross section (N2) ([1]; [M+H]+): 129 Å² | collision cross section (N2) ([2]; [M+H]+): 133.1 Å² | collision cross section (N2) ([2]; [M-H]-): 139.64 Å²

NC(=O)C[C@H](N)C(=O)O [Asparagine]
collision cross section (N2) ([1]; [M+H]+): 118 Å²

CCCCCCCCCC/C=C\CCCCCCCCCC(=O)O[C@H](COC(=O)CCCCCCCCCCC)COP(=O)([O-])OCC[N+](C)(C)C [PC(16:0/18:1)]
collision cross section (N2) ([3]; [M+H]+): 291.4 Å² and 299.1 Å²

Nc1ncnc2nc[nH]c12 [Adenine]
collision cross section (N2) ([1]; [M+H]+): 119 Å² | collision cross section (N2) ([4]; [M+H]+): 127.9 Å² | collision cross section (N2) ([2]; [M+H]+): 125.1 Å²

N[C@@H](Cc1cnc[nH]1)C(=O)O [Histidine]
collision cross section (N2) ([1]; [M+H]+): 127 Å²

CCCCCCCC/C=C\CCCCCCCCCC(=O)O[C@H](COC(=O)CCCCCCCCCCC)COP(=O)(O)O[C@H]1C(O)C(O)C(O)[C@@H](O)C1O (some centres undefined) [PI(16:0/16:1)]
collision cross section (N2) ([3]; [M-H]-): 284.6 Å²

O=C(O)[C@H](O)[C@@H](O)[C@H](O)[C@H](O)COP(=O)(O)O [6-Phosphogluconate]
collision cross section (N2) ([1]; [M+Na]+): 159 Å²

CCCCC/C=C\C/C=C\CCCCCCCCCC(=O)O[C@H](COC(=O)CCCCCCCCCCCCC)COP(=O)([O-])OCC[N+](C)(C)C [PC(16:1/18:1)]
collision cross section (N2) ([3]; [M+H]+): 295.3 Å² and 295.1 Å²

N[C@@H](CS)C(=O)O [Cysteine]
collision cross section (N2) ([1]; [M+H]+): 113 Å²

Cc1ncc(C[n+]2csc(CCO)c2C)c(N)n1 [thiamine]
collision cross section (N2) ([1]; [M]+): 159 Å²

CCCCCCCCCC/C=C\CCCCCCCCCC(=O)O[C@H](COC(=O)CCCCCCCCCCC)COP(=O)(O)OC[C@@H](O)CO [PG(16:0/18:1)]
collision cross section (N2) ([3]; [M-H]-): 276.7 Å² and 277.1 Å² and 277 Å²

N[C@@H](CCS)C(=O)O [Homocysteine]
collision cross section (N2) ([1]; [M+H]+): 124 Å² | collision cross section (N2) ([4]; [M+H]+): 130.53 Å²

CN(C)CC(=O)O [Dimethylglycine]
collision cross section (N2) ([1]; [M+H]+): 116 Å² | collision cross section (N2) ([2]; [M+H]+): 119.7 Å²

CCCCCCCC/C=C\CCCCCCCC(=O)OC[C@@H](O)COP(=O)(O)OC[C@@H](O)CO [LPG(18:1)]
collision cross section (N2) ([3]; [M-H]-): 217.9 Å² and 216.9 Å²

NC(=O)c1ncn([C@@H]2O[C@H](CO)[C@@H](O)[C@H]2O)c1N [Acadesine]
collision cross section (N2) ([1]; [M+H]+): 152 Å²

OC[C@@H](O)[C@@H](O)[C@H](O)[C@H](O)CO [Mannitol]
collision cross section (N2) ([1]; [M+Na]+): 137 Å² | collision cross section (N2) ([5]; [M+Li]+): 144.5 Å² | collision cross section (N2) ([5]; [M+Na]+): 140.6 Å²

CCCCCCCCCCCCCCCC(=O)OC(CC(=O)[O-])C[N+](C)(C)C (centres undefined) [palmitoylcarnitine]
collision cross section (N2) ([1]; [M+H]+): 217 Å²

NC(=O)CC[C@H](N)C(=O)O [Glutamine]
collision cross section (N2) ([1]; [M+H]+): 124 Å² | collision cross section (N2) ([4]; [M+H]+): 133.45 Å² | collision cross section (N2) ([4]; [M+Na]+): 138.11 Å²

CCCCCCCC/C=C\CCCCCCCCCC(=O)O[C@H](COC(=O)CCCCCCCCCCCC)COP(=O)(O)OCCN [PE(33:1)]
collision cross section (N2) ([3]; [M-H]-): 266.7 Å²

CCCC/C=C\CCCCCCCC(=O)OC[C@H](COP(=O)(O)O[C@H]1C(O)C(O)C(O)[C@@H](O)C1O)OC(=O)CCCCCCC/C=C\CCCCCCCC (some centres undefined) [PI(16:1/16:1)]
collision cross section (N2) ([3]; [M-H]-): 282.9 Å²

Nc1ccn([C@@H]2O[C@H](COP(=O)(O)O)[C@@H](O)[C@H]2O)c(=O)n1 [CMP]
collision cross section (N2) ([1]; [M+H]+): 163 Å²

C=C(OP(=O)(O)O)C(=O)O [Phosphoenolpyruvate]
collision cross section (N2) ([1]; [M+Na]+): 131 Å²

NC(=O)c1cccnc1 [Niacinamide]
collision cross section (N2) ([1]; [M+H]+): 118 Å²

CCCCCCC/C=C\CCCCCCCC(=O)OC[C@@H](O)COP(=O)(O)OC[C@@H](O)CO [LPG(17:1)]
collision cross section (N2) ([3]; [M-H]-): 213.5 Å²

CCCCCC/C=C\CCCCCCCCCC(=O)O[C@H](COC(=O)CCCCCCCCCCCCCCC)COP(=O)(O)OCCN [PE(16:0/18:1)]
collision cross section (N2) ([3]; [M+H]+): 286.1 Å²

Nc1ncnc2c1ncn2[C@@H]1O[C@H](CO)[C@@H](O)[C@H]1O [Adenosine]
collision cross section (N2) ([1]; [M+H]+): 151 Å² | collision cross section (N2) ([4]; [M+H]+): 156.97 Å² | collision cross section (N2) ([4]; [M+Na]+): 170.07 Å² | collision cross section (N2) ([2]; [M+H]+): 155.7 Å²

Nc1ccn([C@@H]2O[C@H](CO)[C@@H](O)[C@H]2O)c(=O)n1 [Cytidine]
collision cross section (N2) ([1]; [M+H]+): 148 Å² | collision cross section (N2) ([2]; [M+Na]+): 159.5 Å²

O=c1nc[nH]c2nc[nH]c12 [Hypoxanthine]
collision cross section (N2) ([1]; [M+H]+): 120 Å² | collision cross section (N2) ([4]; [M+H]+): 135.79 Å² | collision cross section (N2) ([4]; [M+Na]+): 138.88 Å² | collision cross section (N2) ([2]; [M+H]+): 127.1 Å²

CCCCCC/C=C\CCCCCCCC(=O)OC[C@@H](O)COP(=O)(O)O[C@H]1C(O)C(O)C(O)[C@@H](O)C1O (some centres undefined) [LPI(16:1)]
collision cross section (N2) ([3]; [M-H]-): 226.1 Å²

C[C@@](O)(CCO)CC(=O)O [Mevalonic acid]
collision cross section (N2) ([1]; [M+Na]+): 128 Å²

O=c1[nH]c(=O)c2[nH]cnc2[nH]1 [Xanthine]
collision cross section (N2) ([1]; [M+H]+): 124 Å² | collision cross section (N2) ([4]; [M+H]+): 138.11 Å² | collision cross section (N2) ([4]; [M+Na]+): 152.65 Å² | collision cross section (N2) ([2]; [M+H]+): 130.3 Å²

CCCC/C=C\CCCCCCCC(=O)OC[C@H](COP(=O)(O)O[C@H]1C(O)C(O)C(O)[C@@H](O)C1O)OC(=O)CCCCCCCCC/C=C\CCCCCCCCCC (some centres undefined) [PI(18:1/18:1)]
collision cross section (N2) ([3]; [M-H]-): 295.9 Å² and 296.2 Å²

CCCCC/C=C\C/C=C\CCCCCCCC(=O)O[C@H](COC(=O)CCCCCCCCCCC)COP(=O)(O)O[C@H]1C(O)C(O)C(O)[C@@H](O)C1O (some centres undefined) [PI(14:1/16:1)]
collision cross section (N2) ([3]; [M-H]-): 283.6 Å²

C[C@@H](O)[C@H](N)C(=O)O [Threonine]
collision cross section (N2) ([1]; [M+H]+): 122 Å²

CCCC/C=C\CCCCCCCC(=O)OC[C@H](COP(=O)([O-])OCC[N+](C)(C)C)OC(=O)CCCCCCCCCCCCCCCCCCCCC [PC(18:0/18:1)]
collision cross section (N2) ([3]; [M+H]+): 306.1 Å² and 306 Å²

Nc1ncnc2c1ncn2[C@H]1C[C@H](O)[C@@H](COP(=O)(O)O)O1 [dAMP]
collision cross section (N2) ([1]; [M+H]+): 164 Å²

O=c1nc[nH]c2c1ncn2[C@@H]1O[C@H](CO)[C@@H](O)[C@H]1O [Inosine]
collision cross section (N2) ([1]; [M+H]+): 153 Å² | collision cross section (N2) ([4]; [M+H]+): 159.25 Å² | collision cross section (N2) ([4]; [M+Na]+): 175.37 Å² | collision cross section (N2) ([2]; [M+Na]+): 170.7 Å²

CCCCCCCCCCCCCCCC(=O)OC[C@H](O)COP(=O)(O)OC[C@@H](COC(=O)CCCCCCCCCCCCCCC)OC(=O)CCCCCCCC1CC1CCCCCC (some centres undefined) [AcylPG(49:1)]
collision cross section (N2) ([6]; [M+Na]+): 332.3 Å² | collision cross section (N2) ([6]; [M-H]-): 320.54 Å²

CCCCCCCCCCCCCCCC(=O)O[C@H](CO)COP(=O)(O)OCC(O)CO (some centres undefined) [LPG(16:0)]
collision cross section (N2) ([6]; [M-H]-): 213.25 Å²

O=C(O)[C@H](O)COP(=O)(O)O [3-Phosphoglyceric acid]
collision cross section (N2) ([1]; [M+Na]+): 134 Å²

N[C@@H](CCC(=O)O)C(=O)O [Glutamic acid]
collision cross section (N2) ([1]; [M+H]+): 123 Å²

OC[C@H]1OC(O)[C@@H](O)[C@@H](O)[C@@H]1O (some centres undefined) [Mannose]
collision cross section (N2) ([1]; [M+Na]+): 138 Å²

O=c1ccn([C@@H]2O[C@H](CO)[C@@H](O)[C@H]2O)c(=O)[nH]1 [Uridine]
collision cross section (N2) ([1]; [M+H]+): 152 Å² | collision cross section (N2) ([4]; [M+Na]+): 166 Å² | collision cross section (N2) ([2]; [M+Na]+): 160.1 Å²

CCCCCCCCCCCCCCCC(=O)OCC(COP(=O)(O)O)OC(=O)CCCCCCCC1CC1CCCCCC (centres undefined) [PA(33:1)]
collision cross section (N2) ([6]; [M-H]-): 252.33 Å²

Nc1nc(=O)c2nc(CNc3ccc(C(=O)N[C@@H](CCC(=O)O)C(=O)O)cc3)cnc2[nH]1 [Folic acid]
collision cross section (N2) ([1]; [M+Na]+): 202 Å²

Nc1nc(=O)c2ncn([C@@H]3O[C@H](CO)[C@@H](O)[C@H]3O)c2[nH]1 [Guanosine]
collision cross section (N2) ([1]; [M+H]+): 160 Å² | collision cross section (N2) ([4]; [M+H]+): 165.02 Å² | collision cross section (N2) ([4]; [M+Na]+): 177.25 Å² | collision cross section (N2) ([2]; [M+Na]+): 174.6 Å²
